The values below come from paper PMC11945542 (Viruses, 2025).

SMILES strings stand for the structures. “Also recorded” adds a separate entry of the source. Read-outs that look alike come from different tables or passages of the source.

The test system of one series is human adenovirus (HAdV). Briefly: microbe, parasite or virus in culture. The series is classed as cell-based, human adenovirus serotype 11 (RCAd11pGFP).
In series [1] the test system is Rift Valley fever virus (RVFV). The series is classed as cell-based. The settings on record: A549 cells, primary screening, 100 to 0.4 µM, 16 h post infection.
Series [2] relates to SARS-CoV-2. As to the kind of experiment: microbe, parasite or virus in culture. It counts as cell-based. The note with it: for IC50: read-out: IC50 against SARS-CoV-2.
Series [3] deals with SARS-CoV-2. As to the kind of experiment: microbe, parasite or virus in culture. The series is classed as cell-based. The settings on record: Calu-3 cells, 48 h, immunofluorescence of infected cells.
In another series the test system is adenovirus 5 (HAdV5). As to the kind of experiment: microbe, parasite or virus in culture. The note with it: read-out: IC50 against HAdV type 5. The series is classed as cell-based.
The test system of series [4] is chikungunya virus (CHKV) 181/25. It counts as cell-based.
Series [5] deals with dengue virus (DNV) serotype 2 D2Y98P. As to the kind of experiment: microbe, parasite or virus in culture. It counts as cell-based, dengue virus serotype 2. The note with it: read-out: IC50 against dengue virus type 2.
Series [6] concerns herpes simplex virus (HSV) 1 MacIntyre. It counts as cell-based, herpes simplex virus 1.
Series [7] concerns Herpes simplex virus (HSV) 2 MS. The series is classed as cell-based, herpes simplex virus 2.
Series [8] relates to influenza virus (INFV) H1N1 A/California/07/09. The series is classed as cell-based. The settings on record: read-out: IC50 against influenza virus; Vero cells, MOI 0.01, 35 °C, TPCK trypsin.
The test system of series [9] is Zika virus (ZIKV) FSS13025. The series is classed as cell-based.
Series [10] deals with human cytomegalovirus (HCMV) Merlin strain. Briefly: HCMV infectivity assay in human foreskin fibroblasts. It counts as cell-based. The settings on record: 5 days, column of table headed IC50 [µM].
In series [11] the target is T1, TIE-2 (Homo sapiens, UniProt Q02763). As to the kind of experiment: Vanadate-induced TIE-2 receptor phosphorylation in CHO cells. It counts as cell-based. More on the design: host or cells: Chinese hamster ovary (CHO) cells. The settings on record: Chinese hamster ovary (CHO) cells, read-out: IC50, vanadate-induced inhibition of TIE-2 receptor phosphorylation.
In series [12] the test system is SARS-CoV-2. As to the kind of experiment: Primary human mucociliary airway (ALI) SARS-CoV-2 infection model. The series is classed as cell-based. The note with it: tested at 10 µM.
The subject of series [13] is SARS-CoV-2. It counts as in vivo, mice (B6.Cg-Tg(K18-ACE2)2Prlmn/J). The settings on record: K18-ACE2 mice, oral b.i.d., vs placebo.
A further series addresses CDK8 (Homo sapiens, UniProt P49336). As to the kind of experiment: Kinase inhibition profile: CDK8. It counts as biochemical. The settings on record: kinase inhibition profile (DSTT, Cerep); preliminary.
The target of a further series is MAPK14 (Homo sapiens, UniProt Q16539). As to the kind of experiment: Kinase inhibition profile: MAPK14. The settings on record: kinase inhibition profile (DSTT, Cerep); preliminary. It counts as biochemical.
Another series deals with MAPK11 (Homo sapiens, UniProt Q15759). Briefly: Kinase inhibition profile: MAPK11. It counts as biochemical. The note with it: kinase inhibition profile (DSTT, Cerep); preliminary.
For series [14], the target named is T1, TIE-2. As to the kind of experiment: Kinase inhibition profile: TIE-2. The note with it: kinase inhibition profile (DSTT, Cerep); preliminary. The series is classed as biochemical.
In another series the target is KDR (Homo sapiens, UniProt P35968). Briefly: Kinase inhibition profile: KDR.
Where [15] appears, read: 60 mg/kg (Figure 7), 100 mg/kg (methods).

T1 sequence (Q02763 23-1124): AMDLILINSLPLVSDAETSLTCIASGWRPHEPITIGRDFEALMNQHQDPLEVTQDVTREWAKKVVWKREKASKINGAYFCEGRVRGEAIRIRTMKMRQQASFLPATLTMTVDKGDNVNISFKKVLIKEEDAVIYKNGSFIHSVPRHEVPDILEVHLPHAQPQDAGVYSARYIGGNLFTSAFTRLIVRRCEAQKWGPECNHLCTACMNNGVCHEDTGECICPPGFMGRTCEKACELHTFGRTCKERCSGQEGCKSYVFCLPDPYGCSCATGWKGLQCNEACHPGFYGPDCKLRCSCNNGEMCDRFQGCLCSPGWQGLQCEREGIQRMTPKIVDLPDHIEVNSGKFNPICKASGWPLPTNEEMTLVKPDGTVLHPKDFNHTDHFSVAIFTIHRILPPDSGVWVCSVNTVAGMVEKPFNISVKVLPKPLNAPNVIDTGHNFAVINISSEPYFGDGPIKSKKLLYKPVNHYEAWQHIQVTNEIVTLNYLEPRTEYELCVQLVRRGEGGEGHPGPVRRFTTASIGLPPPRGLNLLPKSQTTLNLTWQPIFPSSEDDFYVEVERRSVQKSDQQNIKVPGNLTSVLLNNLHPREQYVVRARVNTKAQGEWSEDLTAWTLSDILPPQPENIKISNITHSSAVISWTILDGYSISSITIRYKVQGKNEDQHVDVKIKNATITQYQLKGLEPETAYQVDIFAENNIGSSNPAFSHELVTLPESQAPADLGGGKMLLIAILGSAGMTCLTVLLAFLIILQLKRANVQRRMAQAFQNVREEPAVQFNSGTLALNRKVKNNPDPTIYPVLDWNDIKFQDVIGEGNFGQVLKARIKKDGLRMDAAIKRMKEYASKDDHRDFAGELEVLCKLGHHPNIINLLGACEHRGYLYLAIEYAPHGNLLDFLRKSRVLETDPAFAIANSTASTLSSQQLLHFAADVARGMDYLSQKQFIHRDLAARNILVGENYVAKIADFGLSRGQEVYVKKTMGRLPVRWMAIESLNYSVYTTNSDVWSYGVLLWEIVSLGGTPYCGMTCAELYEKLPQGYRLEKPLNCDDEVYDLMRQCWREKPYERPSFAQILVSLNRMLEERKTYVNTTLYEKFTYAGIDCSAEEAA
Sequence of MAPK11 (Q15759 whole entry): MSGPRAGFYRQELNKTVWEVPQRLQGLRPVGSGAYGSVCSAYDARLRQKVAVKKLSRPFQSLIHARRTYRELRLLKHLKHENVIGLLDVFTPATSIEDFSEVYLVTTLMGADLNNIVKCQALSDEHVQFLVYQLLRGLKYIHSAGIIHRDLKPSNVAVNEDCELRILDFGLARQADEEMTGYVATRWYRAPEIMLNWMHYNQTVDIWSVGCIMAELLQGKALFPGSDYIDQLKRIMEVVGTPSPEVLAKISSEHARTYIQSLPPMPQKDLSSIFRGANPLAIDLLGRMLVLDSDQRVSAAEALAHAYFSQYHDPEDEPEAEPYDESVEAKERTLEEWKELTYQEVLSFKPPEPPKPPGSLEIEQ
Sequence of KDR (P35968 20-1356): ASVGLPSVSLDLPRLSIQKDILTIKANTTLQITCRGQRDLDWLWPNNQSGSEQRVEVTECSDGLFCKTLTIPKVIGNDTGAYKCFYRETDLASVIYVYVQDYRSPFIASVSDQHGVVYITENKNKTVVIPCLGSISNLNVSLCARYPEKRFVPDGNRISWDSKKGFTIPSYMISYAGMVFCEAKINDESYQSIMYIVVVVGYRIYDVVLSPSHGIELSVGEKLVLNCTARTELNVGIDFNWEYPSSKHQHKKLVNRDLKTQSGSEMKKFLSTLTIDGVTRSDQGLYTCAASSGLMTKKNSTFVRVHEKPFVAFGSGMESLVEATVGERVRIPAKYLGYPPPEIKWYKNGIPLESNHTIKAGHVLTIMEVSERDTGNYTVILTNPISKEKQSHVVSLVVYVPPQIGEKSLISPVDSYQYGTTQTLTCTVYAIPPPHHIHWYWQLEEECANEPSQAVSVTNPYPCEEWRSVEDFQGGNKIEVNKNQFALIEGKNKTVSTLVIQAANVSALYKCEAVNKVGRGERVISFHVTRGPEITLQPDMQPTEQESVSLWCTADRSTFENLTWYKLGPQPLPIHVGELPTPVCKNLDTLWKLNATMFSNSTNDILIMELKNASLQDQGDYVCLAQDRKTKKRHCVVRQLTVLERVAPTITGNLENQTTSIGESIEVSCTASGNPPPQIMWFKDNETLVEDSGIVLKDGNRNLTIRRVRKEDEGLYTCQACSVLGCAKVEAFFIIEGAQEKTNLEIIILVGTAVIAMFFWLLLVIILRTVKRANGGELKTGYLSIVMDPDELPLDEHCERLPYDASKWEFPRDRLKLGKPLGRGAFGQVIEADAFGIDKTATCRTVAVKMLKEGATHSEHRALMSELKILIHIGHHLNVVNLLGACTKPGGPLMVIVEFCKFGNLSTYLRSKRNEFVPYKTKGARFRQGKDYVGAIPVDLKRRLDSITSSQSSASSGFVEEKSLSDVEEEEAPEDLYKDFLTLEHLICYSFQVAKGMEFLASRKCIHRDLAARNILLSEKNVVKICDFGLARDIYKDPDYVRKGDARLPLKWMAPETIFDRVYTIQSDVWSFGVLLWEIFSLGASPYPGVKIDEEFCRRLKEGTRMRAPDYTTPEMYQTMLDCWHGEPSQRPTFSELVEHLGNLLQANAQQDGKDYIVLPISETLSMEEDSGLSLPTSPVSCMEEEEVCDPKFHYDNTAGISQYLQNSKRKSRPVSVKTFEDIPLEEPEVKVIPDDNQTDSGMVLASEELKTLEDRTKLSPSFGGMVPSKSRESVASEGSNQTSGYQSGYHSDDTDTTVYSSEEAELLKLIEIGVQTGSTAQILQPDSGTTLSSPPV
Sequence of MAPK14 (Q16539 whole entry): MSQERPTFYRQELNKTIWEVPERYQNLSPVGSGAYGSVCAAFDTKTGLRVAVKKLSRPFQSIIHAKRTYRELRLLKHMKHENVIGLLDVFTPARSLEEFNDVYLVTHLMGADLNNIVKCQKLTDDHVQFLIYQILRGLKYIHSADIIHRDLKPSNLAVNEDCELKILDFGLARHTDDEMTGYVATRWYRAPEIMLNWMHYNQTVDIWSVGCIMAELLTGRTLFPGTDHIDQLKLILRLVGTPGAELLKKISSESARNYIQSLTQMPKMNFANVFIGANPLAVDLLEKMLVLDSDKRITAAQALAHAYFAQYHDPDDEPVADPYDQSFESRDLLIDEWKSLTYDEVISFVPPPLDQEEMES
Sequence of CDK8 (P49336 whole entry): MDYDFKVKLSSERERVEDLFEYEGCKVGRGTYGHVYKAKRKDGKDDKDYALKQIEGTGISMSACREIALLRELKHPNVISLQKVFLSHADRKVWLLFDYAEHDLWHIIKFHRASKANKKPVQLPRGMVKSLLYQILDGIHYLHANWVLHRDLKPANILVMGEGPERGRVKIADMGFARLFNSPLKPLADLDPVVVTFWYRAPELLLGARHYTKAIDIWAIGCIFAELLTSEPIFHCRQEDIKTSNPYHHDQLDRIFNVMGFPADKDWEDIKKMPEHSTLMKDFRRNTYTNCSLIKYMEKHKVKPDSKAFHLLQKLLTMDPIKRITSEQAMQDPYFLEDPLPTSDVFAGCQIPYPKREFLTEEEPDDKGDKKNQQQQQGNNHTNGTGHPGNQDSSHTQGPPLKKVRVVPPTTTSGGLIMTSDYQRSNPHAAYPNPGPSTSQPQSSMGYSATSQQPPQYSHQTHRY
Sequence of CDK8 (P24863 whole entry partner): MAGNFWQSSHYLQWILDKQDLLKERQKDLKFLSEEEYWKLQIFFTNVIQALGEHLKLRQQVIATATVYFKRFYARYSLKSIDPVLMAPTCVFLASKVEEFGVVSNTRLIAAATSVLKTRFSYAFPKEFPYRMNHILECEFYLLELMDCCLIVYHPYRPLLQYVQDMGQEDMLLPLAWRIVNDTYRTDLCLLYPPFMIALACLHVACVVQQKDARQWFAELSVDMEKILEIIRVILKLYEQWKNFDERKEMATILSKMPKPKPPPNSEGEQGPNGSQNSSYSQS

As a reminder, the EC50 is the concentration that produces a half-maximal response. Broadly, the IC50 is the concentration that gives 50% inhibition. Consider `CNC(=O)c1cc(Oc2ccc(NC(=O)Nc3cc(C(F)(F)F)ccc3-n3cncn3)cc2)ccn1` [Compound 1], for which, in the series with human adenovirus (HAdV) (Human adenovirus sp., A549, 24 h, read-out: EC50 against HAdV), the EC50 was 4500 nM. In addition, the “antiviral activity against RVFV (in words)” value in series [1] is given as “antiviral activity was seen at 25 µM”. Moreover, the “SI (selectivity index)” value in the series on SARS-CoV-2 [2] (HeLa-ACE2 cells) was 5. In addition, the IC50 was determined as 3200 nM with SARS-CoV-2 [2] (Severe acute respiratory syndrome coronavirus 2, HeLa-ACE2, 24 h); 1160 nM with adenovirus 5 (HAdV5) (Human mastadenovirus C, Vero); 1160 nM with adenovirus 5 (HAdV5); 8430 nM in series [5] (Dengue virus, Vero); 8430 nM in [5]; 39500 nM in series [8]. The concentration for half-maximal inhibition (IC50) on TIE-2 [11] worked out at 27 nM. Moreover, the “IC50 against SARS-CoV-2” value with SARS-CoV-2 [3] is listed as “did not exhibit antiviral properties”. The “activity against CHKV” value in [4] is given as “Not Active”. Moreover, the “activity against HSV-1” value in series [6] is listed as “Not Active”. Moreover, the “activity against HSV-2” value in series [7] is “Active”. Also, the “activity against ZIKV” value in [9] is listed as “Not Active”. In addition, in [10], the “activity against HCMV” value is “Active”.
For `CNC(=O)c1cc(Oc2ccc(NC(=O)Nc3cc(C(F)(F)F)ccc3-n3ccnc3)cc2)ccn1` [Compound 2], the “antiviral activity against HAdV (in words)” value with human adenovirus (HAdV) was “did not have activity”. In addition, the “antiviral activity against RVFV (in words)” value in series [1] was “dose–response antiviral activity”. The IC50 on TIE-2 [11] (unit given as nm) was determined as 3 nM.
As to `O=C(Nc1ccc(Oc2ccncc2)cc1)Nc1cc(C(F)(F)F)ccc1-n1cncn1` [Compound 3], in the series on human adenovirus (HAdV), the “antiviral activity against HAdV (in words)” value is on record as “most potent compound”. In [1], the “antiviral activity against RVFV (in words)” value was “most potent compound”. Further, in the series with A549 cells, the “host cell toxicity by visual observation” value is reported as “displayed host cell toxicity at the highest concentrations”. Besides, the IC50 on TIE-2 [11] came out at 36 nM.
Take `CNC(=O)c1cc(Oc2ccc(NC(=O)Nc3cc(C)c(Cl)cc3-n3cccc3)cc2)ccn1` [Compound 4]: the IC50 is 500 nM with SARS-CoV-2 [2] (Severe acute respiratory syndrome coronavirus 2, HeLa-ACE2 cells, 24 h, immunofluorescence of infected cells); 7700 nM in the series on SARS-CoV-2 [3] (Severe acute respiratory syndrome coronavirus 2, read-out: IC50 against SARS-CoV-2); 600 nM in the series on adenovirus 5 (HAdV5) (Human mastadenovirus C, Vero); 630 nM with adenovirus 5 (HAdV5); 10 nM in [5] (Dengue virus, Vero); 12 nM in [5]. The IC50 in [8] was determined as 10700 nM; on CDK8, 31 nM; on MAPK14 it was 87 nM; at MAPK11, 430 nM; on KDR it was 7.9 nM; on TIE-2 [11], 126 nM. The “activity against CHKV” value in [4] (Vero cells, MOI 0.01, column of table headed IC50 [µM]) is “Not Active”. Moreover, in series [6], the “activity against HSV-1” value is “Not Active”. Besides, in series [7], the “activity against HSV-2” value was “dose-dependent activity; also recorded: Active”. Also, the “activity against ZIKV” value in [9] was “dose-dependent activity; also recorded: Active”. In addition, the “inhibition of SARS-CoV-2 replication in primary human mucociliary airway model” value with SARS-CoV-2 [12] was “showed activity”. In addition, in the series with SARS-CoV-2 [13] (setting [15]), the “animal survival after lethal SARS-CoV-2 challenge” value is “protective effect on animal survival; also recorded: increased survival”. The “body weight loss after infection” value in the series on SARS-CoV-2 [13] (setting [15]) is on record as “reduced body weight loss”. The “viral titers in lungs” value in the series with SARS-CoV-2 [13] (days 1, 3 and 6 after infection, qRT-PCR) was “statistically significant reduction in viral titers; also recorded: reduced viral load in lungs”. Besides, the “inhibition of TIE-2 (in words)” value at TIE-2 [14] is “strong inhibition”.
